Results reported in PubChem BioAssay (NCI).
Several values for one entry are separate records, joined by “and”; a condition that tells them apart may be missing. Equal values may be shown once.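 Following 48 hours of exposure in 96-well plates, responses at five concentrations were used to interpolate endpoints linearly. GI50: concentration for 50% inhibition of growth. At the TGI there is no net growth.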

Columns and labels:
Assay in all cases: inhibition of tumour cell growth, NCI panel, 48 h
SK-MEL-5 melanoma = test system: SK-MEL-5 melanoma
A549 NSCLC = test system: A549 NSCLC
MCF7 breast = test system: MCF7 breast
IGROV1 ovarian = test system: IGROV1 ovarian
UACC-62 melanoma = test system: UACC-62 melanoma
UACC-257 melanoma = test system: UACC-257 melanoma
SK-MEL-2 melanoma = test system: SK-MEL-2 melanoma
HCT-116 colon = test system: HCT-116 colon
SN12C renal = test system: SN12C renal
OVCAR-4 ovarian = test system: OVCAR-4 ovarian

Compound | GI50 (SK-MEL-5 melanoma) | TGI (SK-MEL-5 melanoma) | GI50 (A549 NSCLC) | TGI (A549 NSCLC) | GI50 (MCF7 breast) | TGI (MCF7 breast) | GI50 (IGROV1 ovarian) | TGI (IGROV1 ovarian) | GI50 (UACC-62 melanoma) | TGI (UACC-62 melanoma) | GI50 (UACC-257 melanoma) | TGI (UACC-257 melanoma) | GI50 (SK-MEL-2 melanoma) | TGI (SK-MEL-2 melanoma) | GI50 (HCT-116 colon) | TGI (HCT-116 colon) | GI50 (SN12C renal) | TGI (SN12C renal) | GI50 (OVCAR-4 ovarian) | TGI (OVCAR-4 ovarian)
CCNC(=O)Nc1ccc(-c2nc3c(c(N4CCOC[C@@H]4C)n2)CCN(C2COC2)C3)cc1 | 0.317 µM and 0.331 µM | 8.52 µM and 2.56 µM | 0.354 µM and 0.384 µM | > 100 µM | 0.121 µM and 0.115 µM | > 100 µM | 0.115 µM and 0.071 µM | 5.38 µM and 0.751 µM | 0.194 µM and 0.0727 µM | 1.28 µM and 0.994 µM | 0.232 µM and 0.287 µM | 2.74 µM and 3.92 µM | 0.295 µM and 0.392 µM | 3 µM and 3.43 µM | 1.19 µM and 0.78 µM | > 100 µM | 0.31 µM and 0.285 µM | > 100 µM | 0.154 µM and 0.259 µM | 1.71 µM and > 7.24 µM
N#Cc1cc(-c2ccccc2)[nH]c1-c1nccc2ccccc12 | 3.58 µM | 15.2 µM | 13.9 µM | > 100 µM | 5.76 µM | > 100 µM | 23.3 µM | > 100 µM | 7.36 µM | > 100 µM | 7.81 µM | 60.1 µM | 11.9 µM | 81 µM | 9.13 µM | > 100 µM | 23.9 µM | > 100 µM | 3.43 µM | > 100 µM
O=C(O)c1ccc([N+](=O)[O-])c(P(=O)(O)O)c1 |  | > 100 µM |  | > 100 µM |  | > 100 µM |  | > 100 µM |  | > 100 µM |  | > 100 µM |  | > 100 µM |  | > 100 µM |  | > 100 µM |  | > 100 µM
O=S(=O)(c1ccc2c(c1)C(=NO)c1cc(S(=O)(=O)N3CCCCC3)ccc1-2)N1CCCCC1 | > 1 µM and 0.174 µM | > 1 µM and 0.314 µM | > 1 µM and 0.187 µM | > 1 µM and 0.371 µM | > 1 µM and 0.178 µM | > 1 µM and 0.344 µM | 0.131 µM and 0.0732 µM | 0.494 µM and 0.213 µM | 0.227 µM and 0.174 µM | 0.612 µM and 0.329 µM | 0.17 µM | 0.32 µM | > 1 µM and 0.176 µM | > 1 µM and 0.331 µM | 0.2 µM and 0.153 µM | 0.434 µM and 0.333 µM | 0.208 µM and 0.144 µM | 0.438 µM and 0.28 µM | 0.195 µM and 0.0636 µM | 0.426 µM and 0.143 µM
COc1ccc(C2=C(Br)C(=O)OC2)cc1Cl | 29.1 µM | > 100 µM | 18.5 µM | 53.6 µM | 29.6 µM | > 93 µM | 45.9 µM | > 100 µM | 20.9 µM | > 64.4 µM | 21 µM | 59.5 µM | > 91.2 µM | > 100 µM | 20.4 µM | 49.5 µM | 22.1 µM | 52.3 µM | 61.4 µM | > 100 µM
NC(=O)Cc1ccccc1Oc1nccc(-c2c(-c3ccc(F)cc3)ncn2C2CCNCC2)n1 | > 25 µM | > 25 µM | > 25 µM | > 25 µM | > 25 µM | > 25 µM | > 25 µM | > 25 µM | > 25 µM | > 25 µM | > 25 µM | > 25 µM | > 25 µM | > 25 µM | > 25 µM | > 25 µM | > 25 µM | > 25 µM | > 25 µM | > 25 µM
COC(=O)C1=C(C(=O)Nc2cccnc2)C2OC1(C(Cc1ccccc1)Oc1ccccc1)C1OC21 (stereo not given) | 15.6 µM | 31.3 µM | 17.1 µM | 31.2 µM | 1.92 µM | 5.33 µM | 9.17 µM | 25.8 µM | 3.23 µM | 13.1 µM | 1.85 µM | 3.71 µM | 12.9 µM | 25.9 µM | 2.01 µM | 4.23 µM | 3.67 µM | 14.2 µM | 2.05 µM | 4.66 µM
CC(C)[C@@H]1NC(=O)[C@]2(C)CSC(=N2)c2csc(n2)CNC(=O)C[C@@H](/C=C/CCS)OC1=O | 0.0446 µM | 0.197 µM | 0.0383 µM | 20.9 µM | 0.274 µM | > 100 µM | 0.119 µM | 2.77 µM | 0.0477 µM | 0.28 µM | 0.0537 µM | 2.15 µM | 0.049 µM | 1.49 µM | 0.123 µM | 1.08 µM | 0.403 µM | > 100 µM | 0.416 µM | > 100 µM
CCCCCCCCCCCCCCCCCC(=O)[O][Sn]([CH2]CCC)([CH2]CCC)[CH2]CCC | 0.141 µM | 0.272 µM | 0.153 µM | 0.317 µM | 0.134 µM | 0.267 µM | 0.154 µM | 0.367 µM | 0.176 µM | 0.45 µM | 0.144 µM | 0.293 µM | 0.171 µM | 0.369 µM | 0.117 µM | 0.25 µM | 0.152 µM | 0.403 µM | 0.108 µM | 0.245 µM
O=C1OCC2=C1C(c1cccc([N+](=O)[O-])c1)c1cc3c(cc1N2CCO)CCC3 (stereo not given) | 0.127 µM | 3.56 µM | 0.223 µM | > 50 µM | 0.0596 µM | > 50 µM | 0.255 µM | > 50 µM | 0.0298 µM | > 24.8 µM | 11.5 µM | > 50 µM | 2.8 µM | 48 µM | 0.148 µM | 16 µM | 0.339 µM | > 39.9 µM | 2.03 µM | > 50 µM
COc1ccc(S(=O)(=O)Nc2cc(/C=C\c3cc(OC)c(OC)c(OC)c3)cc(OC)c2OC)cc1OC | 0.488 µM | 13.1 µM | 1.31 µM | > 100 µM | 0.484 µM | > 100 µM | 4.58 µM | > 100 µM | 0.494 µM | > 100 µM | 27 µM | > 100 µM | 5.29 µM | > 100 µM | 0.469 µM | > 100 µM | 1.18 µM | > 100 µM | 3.12 µM | > 100 µM
Clc1cccc(Cn2cc(Cc3cn(Cc4cccc(Cl)c4)c4ccccc34)c3ccccc32)c1 | > 100 µM | > 100 µM | > 100 µM | > 100 µM | > 100 µM | > 100 µM | 32 µM | > 100 µM | > 100 µM | > 100 µM | > 100 µM | > 100 µM | > 100 µM | > 100 µM | > 100 µM | > 100 µM | > 100 µM | > 100 µM | > 100 µM | > 100 µM
COc1ccccc1/C=C1\CCC(CN(C)C)C1=O (stereo not given) |  | 30.4 µM |  | 40.6 µM |  | 5.87 µM |  | 32.7 µM |  | 13.9 µM |  | 25 µM |  | 24.4 µM |  | 18.1 µM |  | 13.3 µM |  | 19.6 µM
Nc1cccc(-c2nc3sccn3c2-c2ccnc(NCCCNS(=O)(=O)c3ccc(C(F)(F)F)cc3)n2)c1 | 2.2 µM | 5.2 µM | 4.1 µM | 87.4 µM | 4.04 µM | 18.5 µM | 3.75 µM | 23.4 µM | 2.68 µM | 9.71 µM | 5.27 µM | 50.6 µM | 4.66 µM | 23.4 µM | 3.55 µM | 30.5 µM | 4.36 µM | > 100 µM | 3.27 µM | 22.8 µM
CCN1CCN(CCNc2nccc(-c3c(-c4cccc(O)c4)nc4sccn34)n2)S1(=O)=O | 5.28 µM and 6.28 µM | 23.1 µM and 20.7 µM | 15.4 µM and 9.27 µM | 32.5 µM and > 100 µM | 26 µM and 19.5 µM | 32.5 µM and > 100 µM | 11.9 µM and 5.5 µM | 32.5 µM and > 100 µM | 0.105 µM and 0.0766 µM | 6.11 µM and 4.62 µM | 0.31 µM and 0.215 µM | 32.5 µM and 9.03 µM | 2.05 µM and 2.6 µM | 10.4 µM and 7.27 µM | 9.72 µM and 3.63 µM | 32.5 µM and 55.3 µM | 15.2 µM and 7.73 µM | 32.5 µM and > 100 µM | 19.5 µM and 12.1 µM | 32.5 µM and > 100 µM
O=C(Nc1cccnc1)c1cccs1 | 53 µM | > 100 µM | 5.6 µM | > 100 µM | 1.67 µM | > 100 µM | > 100 µM | > 100 µM | 28.1 µM | > 100 µM | > 100 µM | > 100 µM | > 100 µM | > 100 µM | 1.89 µM | > 100 µM | 25.8 µM | > 100 µM | 1.11 µM | > 100 µM
C[C@H]1O[C@@H](O[C@H]2[C@@H](O)C[C@H](O[C@H]3[C@@H](O)C[C@H](O[C@H]4CC[C@]5(C)C6C[C@@H](O)[C@]7(C)[C@@H](C8=CC(=O)OC8)CC[C@]7(O)C6CC[C@@H]5C4)O[C@@H]3C)O[C@@H]2C)C[C@H](O)[C@@H]1O (stereo not given in full) | 0.0478 µM | 0.122 µM | 0.0163 µM | 0.0581 µM | 0.0521 µM | 1.69 µM | 0.145 µM | 3.45 µM | 0.103 µM | 0.228 µM | 0.101 µM | 0.237 µM | 0.121 µM | 0.328 µM | 0.0207 µM | 0.0972 µM | 0.0266 µM | 0.457 µM | 0.101 µM | 0.306 µM
